Results on 59 compounds are retold here after the METLIN SMRT retention time set (Domingo-Almenara et al. 2019).

The structures appear in SMILES notation.

This data set can be described thus: gradient 5% acetonitrile 3 min, to 50% in 2 min, to 85% in 15 min, held 3 min, 100 µL/min. Conditions: column: Zorbax Extend-C18 2.1 x 50 mm; eluents: water / acetonitrile, 0.1% formic acid. An outline of the steps:
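Retention time was recorded from adduct peaks, which were picked computationally and each inspected manually. Pure standards ran in mixtures of ~100 molecules on HPLC coupled to a quadrupole time-of-flight mass spectrometer, in positive and negative ionization mode, through a Zorbax Extend-C18 column (2.1 × 50 mm, 1.8 μm) at 100 μL/min. Eluents were water and acetonitrile, each with 0.1% formic acid.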
The compound `C=CCn1c(C)c(CC(=O)NCC2CCCO2)c(=O)n2nc(-c3ccccc3)nc12` (centres undefined) had an RP-LC retention time of 717 s.
The compound `COc1ccccc1NC(=O)NCCC1CCN(S(=O)(=O)c2ccccc2)CC1` had an RP-LC retention time of 910 s.
Compound `CCc1ccc(S(=O)(=O)N2CCCN(C)c3ccccc32)cc1` returned an RP-LC retention time of 1100 s.
Turning to `CC(C)(C)c1ccc(NC(=O)NCCN2CCN(S(C)(=O)=O)CC2)cc1`, the RP-LC retention time was 606 s.
In the case of `Cc1nc2c(sc3nc(-c4ccccc4)ccc32)c(=O)n1CC(=O)Nc1ccccc1Cl` it was 1090 s; in that of `COc1ccc(NC(=O)Nc2cccc(-c3cn4cccnc4n3)c2)cc1`, 687 s.
In the case of `COc1ccc(Cl)c2c(=O)c3c([nH]c12)CCN(CC(=O)Nc1ccc2c(c1)OCCO2)C3` it was 610 s; in that of `CC(C)Cn1cc(CCNC(=O)Nc2c(F)cccc2F)c2cccnc21`, 755 s; in that of `COc1ccccc1NS(=O)(=O)c1ccc2c(c1)C(=O)N(C)c1ncccc1O2`, 885 s.
In the case of `COc1ccc(C[C@@H]2NC[C@@H](O)[C@@H]2OC(C)=O)cc1` it was 600 s.
In turn, `Cc1cc(C)c(-c2noc(C)n2)c(NC(=O)c2ccc(C)c(F)c2)n1` registered an RP-LC retention time of 781 s.
In the case of `O=C(NCC(=O)N1CCc2ccccc21)c1ccc(=O)[nH]c1` it was 599 s; in that of `COc1cc(NC(=O)C2CCN(S(=O)(=O)c3cc(-c4noc(C)n4)cs3)CC2)cc(OC)c1`, 902 s; in that of `Cc1ccnc(OCC(=O)NCCNc2cc(-n3nc(C)cc3C)nc(C)n2)n1`, 596 s.
The compound `CCn1cc(-c2ccncc2)cc1C(=O)NCc1cc(C)ccc1C` yielded an RP-LC retention time of 705 s.
In the case of `Cc1nc2cccnc2n1-c1ccc(C(=O)NCCCN2CCCC2=O)cc1` it was 580 s; in that of `CCc1nc(-c2csc(S(=O)(=O)N3CCCC(C(=O)NCc4cccs4)C3)c2)no1` (centres undefined), 952 s; in that of `COc1cc(C(C)=O)ccc1OC(=O)c1cc2c(C)nn(-c3ccccc3)c2s1`, 1190 s.
`CC(C)c1noc(-c2cc(=O)n(CC(=O)Nc3ccc(F)cc3F)c3ccccc23)n1` registered an RP-LC retention time of 1020 s.
In the case of `CCNc1ncnc2sc3c(c12)CCN(C(=O)c1ccncc1)C3` it was 591 s; in that of `COc1ccc(/C=C2\N=C(c3ccccc3)OC2=O)c(OCc2ccccc2)c1`, 981 s; in that of `Cc1ccc(-c2cc(C(F)(F)F)on2)cc1S(=O)(=O)N1CCCCC1C` (centres undefined), 852 s.
The compound `Cc1ccc(-c2nc3cnccn3c2Nc2ccc3c(c2)OCCO3)cc1` had an RP-LC retention time of 841 s.
In the case of `O=S(=O)(c1ccc2c(c1)CCC2)N1CCC(Cc2nc(-c3cccnc3)n[nH]2)C1` (centres undefined) it was 694 s.
In the case of `CCOC(=O)c1cnc2nc(C)ccc2c1Nc1cc(OC)cc(OC)c1` it was 720 s; in that of `CCc1ccc(S(=O)(=O)N2CCC3(CC2)NCCN=C3NCc2cccc(F)c2)cc1`, 772 s.
In the case of `COc1ccc(N2CCN(C(=O)CCN3C(=O)C4C5C=CC(C5)C4C3=O)CC2)cc1` (centres undefined) it was 650 s; in that of `Cc1cccc(NC(=O)C(C)n2cnc3nc4c(cc3c2=O)CCCC4)c1C` (centres undefined), 765 s; in that of `CC[C@@H](CO)NC(=O)[C@@H]1C=C2c3cccc4[nH]cc(c34)C[C@H]2N(C)C1`, 616 s.
As for `CCNC(=O)c1nc(Nc2ccc(F)cc2)c2ccccc2n1`, the RP-LC retention time came out at 688 s.
In the case of `CCc1noc(NC(C)=O)c1-c1ccc(C)c(S(=O)(=O)Nc2ccc(F)c(Cl)c2)c1` it was 875 s; in that of `CCCN1C(=O)c2cc(C(=O)N3CCC(C)CC3)nn2CC1(C)C(=O)NC1CCCC1` (centres undefined), 817 s.
`O=C(Cn1nc2n(c1=O)CCCCC2)NCc1ccccc1Cl`: the RP-LC retention time stood at 719 s.
In the case of `COc1ccc(CCC(=O)N2CCCC(C)(C(=O)NCc3ccc(C)cc3)C2)cc1` (centres undefined) it was 932 s.
In the case of `Cc1noc(C2(NC(=O)c3ccc(C)s3)CCCCC2)n1` it was 868 s; in that of `CCn1ncc2ccc(C(N)=O)cc21`, 599 s.
Consider `Cc1c(Cl)cccc1S(=O)(=O)N1CCCN(c2ccc(=O)n(-c3ccccc3)n2)CC1`, for which the RP-LC retention time amounted to 944 s.
In the case of `Cc1cccc(NC(=O)CN2CCN(Cc3nc4ccccc4[nH]3)CC2)c1C` it was 541 s; in that of `COc1cccc(OC)c1C(=O)Nc1nc(-c2ccc3c(c2)NC(=O)CO3)c(C)s1`, 785 s.
In the case of `CC(=O)N1c2ccc(S(=O)(=O)N3CCC(c4ccncc4)CC3)cc2CC1C` (centres undefined) it was 620 s; in that of `O=C(Nc1cnc(N2CCCCC2)nc1)c1ccc(Cl)s1`, 1020 s.
`COc1ccc(Cl)cc1NC(=O)NC(C)C(=O)N1CCc2ccccc21` (centres undefined) had an RP-LC retention time of 1000 s.
In the case of `O=C(Nc1ccc2c(c1)CCN2S(=O)(=O)c1ccccc1)Nc1ccccc1Cl` it was 1030 s; in that of `Cc1c(-c2noc(C3CCCCC3)n2)nnn1-c1ccccc1`, 1160 s; in that of `O=C(NCc1ccc(N2CCOCC2)cc1)c1cn2ccccc2n1`, 591 s.
In the case of `CC(C)(Oc1ccc(Cl)cc1)C(=O)N1CCN(CC(O)c2cccs2)CC1` (centres undefined) it was 603 s; in that of `CN1c2ccccc2C(=O)NC12CCN(C(=O)c1cccc(Cl)c1)CC2`, 756 s; in that of `Cc1ccccc1-c1ccc(N2CCC(C(=O)Nc3ccc4c(c3)OCCO4)CC2)nn1`, 634 s.
In the case of `COc1ccc(-c2ncccc2CNS(=O)(=O)c2cccc(C#N)c2)cc1` it was 660 s; in that of `Cc1cnc(Nc2ccc(N3CCN(C)CC3)cc2)nc1Nc1cccc(S(=O)(=O)NC(C)(C)C)c1`, 608 s.
In turn, `O=C(NCCC1=CCCCC1)C(=O)NCC1CCN(Cc2ccccc2)CC1` came in with an RP-LC retention time of 593 s.
Consider `O=C(c1ccncc1)N1CCC(n2nc(-c3ccsc3)ccc2=O)CC1`, for which the RP-LC retention time was found to be 624 s.
In the case of `Cc1ccccc1CC(=O)NC1CCN(c2ccccc2)C1=O` (centres undefined) it was 811 s; in that of `CC1CCCCN1S(=O)(=O)c1ccc2c(c1)CCC(=O)N2CC(=O)NCc1ccc(N(C)C)cc1` (centres undefined), 676 s.
In the case of `Cc1noc(COC2CCN(C(=O)c3ccccc3F)CC2)n1` it was 818 s.
In the case of `CCCN(CC1CCOC1)C(=O)Nc1cccc(F)c1C` (centres undefined) it was 758 s; in that of `Cc1cc(C)cc(N2C(=O)CN(S(=O)(=O)c3ccccc3)CC2(C)C(=O)NC2CCCC2)c1` (centres undefined), 968 s; in that of `CCn1cc(CCNS(=O)(=O)c2cccc(C#N)c2)c2cccnc21`, 733 s.
In turn, `Cc1cc(C(=O)NC2CC2)nn1C` yielded an RP-LC retention time of 600 s.
